Assay [1] deals with Vaccinia virus. The assay can be described thus: Antiviral activity against Vaccinia virus-induced cytopathogenicity in HEL cells. The assay is classed as functional. To be noted: Orthopoxvirus vaccinia. (Protection from cytopathic effect is a common read-out in antiviral testing.)
Assay [2] has as its system Vaccinia virus. The assay can be described thus: Antiviral activity against Vaccinia virus-induced cytopathogenicity in E6SM cells. It counts as functional. To be noted: Orthopoxvirus vaccinia.

≈ marks a conversion by molar mass, not a printed value.

`C=Cc1cn(C/C=C2\OC(=O)C(OCc3ccccc3)=C2OCc2ccccc2)c(=O)[nH]c1=O` had an MIC in the assay with Vaccinia virus [1] of over 18 µM. Regarding `O=C1O/C(=C\Cn2cc(C#Cc3ccccc3)c(=O)[nH]c2=O)C(O)=C1O`, the MIC with Vaccinia virus [1] amounted to 4 µM (≈ 1.41 µg/mL). In the assay on Vaccinia virus [2], `O=C1O/C(=C\Cn2cc(-c3ccccc3)c(=O)[nH]c2=O)C(OCc2ccccc2)=C1OCc1ccccc1` registered an MIC of 95 µM (≈ 48.3 µg/mL). Same read-out and setting: to `O=C1O/C(=C(\Br)Cn2c(Br)c(/C=C/Br)c(=O)[nH]c2=O)C(OCc2ccccc2)=C1OCc1ccccc1` belongs over 116 µM. With `C#Cc1cn(C/C=C2\OC(=O)C(O)=C2O)c(=O)[nH]c1=O`, the MIC with Vaccinia virus [1] is 4 µM (≈ 1.1 µg/mL).

Take `O=C1O/C(=C\Cn2cc(-c3ccco3)c(=O)[nH]c2=O)C(O)=C1O`: the MIC against Vaccinia virus [1] is over 100 µM.

For `C#Cc1cn(C/C=C2\OC(=O)C(OCc3ccccc3)=C2OCc2ccccc2)c(=O)[nH]c1=O`, in the assay with Vaccinia virus [1], the MIC was over 18 µM. `CC#Cc1cn(C/C=C2\OC(=O)C(OCc3ccccc3)=C2OCc2ccccc2)c(=O)[nH]c1=O` returned an MIC against Vaccinia virus [2] of over 0.4 µM.

Turning to `O=C1O/C(=C\Cn2cc(-c3ccccc3)c(=O)[nH]c2=O)C(O)=C1O`, the MIC in the assay on Vaccinia virus [1] was over 100 µM. In turn, `O=C1O/C(=C\Cn2cc(-c3cccs3)c(=O)[nH]c2=O)C(OCc2ccccc2)=C1OCc1ccccc1` yielded an MIC against Vaccinia virus [2] of over 156 µM. In the assay on Vaccinia virus [2], `O=C1O/C(=C\Cn2cc(-c3ccc(Cl)o3)c(=O)[nH]c2=O)C(OCc2ccccc2)=C1OCc1ccccc1` displayed an MIC of over 150 µM. Regarding `CC(C)=CCc1cn(C/C=C2\OC(=O)C(OCc3ccccc3)=C2OCc2ccccc2)c(=O)[nH]c1=O`, in the assay with Vaccinia virus [1], the MIC is 4 µM (≈ 2 µg/mL). On the same count and under the same terms, the result for `O=C1O/C(=C\Cn2cc(-c3cccs3)c(=O)[nH]c2=O)C(O)=C1O` reads over 100 µM. For `C=Cc1cn(C/C=C2\OC(=O)C(O)=C2O)c(=O)[nH]c1=O`, the MIC with Vaccinia virus [2] is over 144 µM. On the same count and under the same terms, the result for `O=C1O/C(=C\Cn2cc(C#Cc3ccccc3)c(=O)[nH]c2=O)C(OCc2ccccc2)=C1OCc1ccccc1` reads over 40 µM; that for `O=C1O/C(=C\Cn2cc(/C=C/Br)c(=O)[nH]c2=O)C(OCc2ccccc2)=C1OCc1ccccc1`, over 150 µM. Same read-out and setting: the result for `C=CCc1cn(C/C=C2\OC(=O)C(OCc3ccccc3)=C2OCc2ccccc2)c(=O)[nH]c1=O` reads over 8 µM; that for `O=C1O/C(=C\Cn2cc(-c3ccco3)c(=O)[nH]c2=O)C(OCc2ccccc2)=C1OCc1ccccc1`, over 6.4 µM.

With `O=C1O/C(=C\Cn2cc(-c3ccc(Br)o3)c(=O)[nH]c2=O)C(OCc2ccccc2)=C1OCc1ccccc1`, the MIC against Vaccinia virus [2] is over 70 µM. The same measure, in the same setting: to `C=C=Cc1cn(C/C=C2\OC(=O)C(OCc3ccccc3)=C2OCc2ccccc2)c(=O)[nH]c1=O` belongs over 8 µM; to `Nc1nc2c(ncn2COCCO)c(=O)[nH]1` [ACYCLOVIR], 300 µM (≈ 67.6 µg/mL). On the same count and under the same terms, the result for `O=c1[nH]c(=O)n([C@H]2C[C@H](O)[C@@H](CO)O2)cc1/C=C/Br` [BRIVUDINE] reads 2.4 µM (≈ 0.8 µg/mL); that for `Nc1nc2c(ncn2COC(CO)CO)c(=O)[nH]1` [GANCICLOVIR], 60 µM (≈ 15.3 µg/mL); that for `NC(=O)c1ncn([C@@H]2O[C@H](CO)[C@@H](O)[C@H]2O)n1` [RIBAVIRIN], 100 µM (≈ 24.4 µg/mL).

Values taken from ChEMBL document CHEMBL1144557, “The novel C-5 aryl, alkenyl, and alkynyl substituted uracil derivatives of L-ascorbic acid: synthesis, cytostatic, and antiviral activity evaluations” (Bioorg Med Chem, 2007).
